The source of these data is ChEMBL document CHEMBL1201862, “PubChem BioAssay data set” (2004).

SMILES strings stand for the structures.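 Results reflect a 48-hour exposure of cells in 96-well plates to compound at five concentrations. Abbreviation: GI50, concentration required for 50% inhibition of growth.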 Active and inactive are the calls of the source. Rule as the data show it: active = GI50 up to about 1.1 µM and inactive = higher.

Among the test systems are OVCAR-5; HOP-92; SF-539; SNB-75; SR; NCI-H23; SF-295; NCI/ADR-RES; MOLT-4; A498; K562; CCRF-CEM; COLO 205; EKVX; HOP-62; M14; T47D; DU-145; SK-MEL-5; UACC-257.
Holding throughout (test): NCI-60 cell line screen, 48 h

In the case of `O=C(O)CN(CC(=O)O)c1ccccc1`, the GI50 was > 100 µM (inactive) with OVCAR-5; 48.9 µM (inactive) with HOP-92; > 100 µM (inactive) with SF-539; > 100 µM (inactive) in the assay on SNB-75; > 100 µM (inactive) with SR; 75.3 µM (inactive) with NCI-H23. Also, the GI50 in the assay with SF-295 is > 100 µM (inactive); with NCI/ADR-RES, > 100 µM (inactive); with MOLT-4 it was > 100 µM (inactive); in the assay on A498, > 100 µM (inactive); with K562, 35 µM (inactive); in the assay with CCRF-CEM, 34 µM (inactive). Moreover, the GI50 was > 100 µM (inactive) in the assay on COLO 205; > 100 µM (inactive) in the assay on EKVX; > 100 µM (inactive) with HOP-62; > 100 µM (inactive) with M14; 37.3 µM (inactive) in the assay with T47D; > 100 µM (inactive) in the assay with DU-145. Also, the figures for the GI50 with SK-MEL-5 and in the assay with UACC-257 were 84.5 µM (inactive) and 18.2 µM (inactive), respectively.

As to `COc1cc(OC)c2c(O)c3c(cc2c1)CC(C)(C)CC3=O`, the GI50 was > 100 µM (inactive) in the assay on OVCAR-5; > 100 µM (inactive) in the assay on HOP-92; > 100 µM (inactive) with SF-539; 49.7 µM (inactive) in the assay on SNB-75; > 26.7 µM (inactive) in the assay with SR; > 100 µM (inactive) in the assay with NCI-H23. Besides, the GI50 was > 72.6 µM (inactive) in the assay on SF-295; > 100 µM (inactive) in the assay with NCI/ADR-RES; > 76.6 µM (inactive) in the assay with MOLT-4; > 100 µM (inactive) in the assay with A498; > 63.1 µM (inactive) with CCRF-CEM; > 100 µM (inactive) with COLO 205. Besides, the GI50 with EKVX was > 100 µM (inactive); in the assay on HOP-62, 97.3 µM (inactive); in the assay on M14, > 100 µM (inactive); with T47D, > 100 µM (inactive); in the assay with DU-145, > 100 µM (inactive); with SK-MEL-5 it was > 100 µM (inactive). For the same compound, the GI50 with UACC-257 is > 100 µM (inactive).

On to `CC1(C)C(=O)C2(OS(=O)(=O)C(F)(F)F)CCC1C2` (stereo not drawn), for which the GI50 in the assay on OVCAR-5 is > 100 µM (inactive); in the assay with HOP-92, > 100 µM (inactive); with SF-539, > 100 µM (inactive); with SNB-75, > 100 µM (inactive); in the assay with SR, 1 µM (active); with NCI-H23, > 100 µM (inactive). The GI50 in the assay on SF-295, with NCI/ADR-RES, in the assay on MOLT-4, in the assay with A498, in the assay with K562 and with CCRF-CEM was > 100 µM (inactive) in each case. Further, the GI50 with COLO 205, in the assay on EKVX, in the assay with HOP-62, in the assay on M14, with T47D and with DU-145 was > 100 µM (inactive) throughout. For the same compound, the GI50 in the assay on SK-MEL-5 and in the assay with UACC-257 was > 100 µM (inactive) throughout.

Regarding `N=c1oc2c(Br)cc(Br)cc2cc1C(=O)Nc1ccccn1`, the GI50 in the assay on OVCAR-5 is > 100 µM (inactive); in the assay on HOP-92, > 100 µM (inactive); in the assay on SF-539, 31.8 µM (inactive); in the assay with SNB-75 it was > 100 µM (inactive); in the assay with SR, 91 µM (inactive); in the assay with NCI-H23, 69.2 µM (inactive). Also, the GI50 is 61.4 µM (inactive) in the assay with NCI/ADR-RES; > 100 µM (inactive) with MOLT-4; > 100 µM (inactive) with A498; > 100 µM (inactive) in the assay on K562; 41.2 µM (inactive) in the assay with CCRF-CEM; > 100 µM (inactive) in the assay with COLO 205. Also, the GI50 in the assay with EKVX was > 100 µM (inactive); in the assay on HOP-62, 53 µM (inactive); in the assay with M14 it was 56 µM (inactive); with T47D, 38.8 µM (inactive); in the assay with DU-145 it was 81.5 µM (inactive); in the assay on SK-MEL-5, 63.1 µM (inactive). In the assay with UACC-257, the GI50 was > 100 µM (inactive).

`COC1(CC[C@@H](C)COC2OC(CO)C(O)C(O)C2O)O[C@H]2C[C@H]3[C@@H]4CC=C5C[C@@H](OC6OC(CO)C(OC7OC(C)C(O)C(O)C7O)C(O)C6OC6OC(C)C(O)C(O)C6O)CC[C@]5(C)[C@H]4CC[C@]3(C)[C@H]2[C@@H]1C` (stereo partly drawn): the GI50 was 4.41 µM (inactive) in the assay on OVCAR-5; 3.25 µM (inactive) with HOP-92; 1.89 µM (inactive) in the assay on SF-539; 2.06 µM (inactive) in the assay on SNB-75; 25.1 µM (inactive) with SR; 3.97 µM (inactive) with NCI-H23. For the same compound, the GI50 is 2.82 µM (inactive) in the assay with SF-295; 3.18 µM (inactive) in the assay with NCI/ADR-RES; 21.7 µM (inactive) in the assay on MOLT-4; 10.2 µM (inactive) in the assay with A498; 18.2 µM (inactive) in the assay with K562; 17.9 µM (inactive) with CCRF-CEM. For the same compound, the GI50 in the assay with COLO 205 is 5.15 µM (inactive); in the assay with EKVX, 22.1 µM (inactive); with HOP-62, 2.56 µM (inactive); in the assay on M14 it was 2.55 µM (inactive); in the assay with T47D it was 6.08 µM (inactive); in the assay with DU-145 it was 2.28 µM (inactive). Also, the GI50 with SK-MEL-5 was 6.12 µM (inactive); with UACC-257, 3.51 µM (inactive).

On to `Cn1c2ccccc2c(=S)c2cc(NC(=O)CCCCC(=O)Nc3ccc4c(c3)c(=S)c3ccccc3n4C)ccc21`, for which the GI50 in the assay on OVCAR-5 is > 100 µM (inactive); in the assay on HOP-92, > 100 µM (inactive); in the assay with SF-539, > 100 µM (inactive); in the assay on SNB-75, 54 µM (inactive); in the assay on SR, > 100 µM (inactive); with NCI-H23, > 100 µM (inactive). For the same compound, the GI50 in the assay on SF-295, in the assay on NCI/ADR-RES, with MOLT-4, with A498, in the assay on K562 and with CCRF-CEM was > 100 µM (inactive) each time. Further, the GI50 with COLO 205 was > 100 µM (inactive); in the assay on EKVX it was > 100 µM (inactive); with HOP-62, 54.7 µM (inactive); with M14, > 100 µM (inactive); in the assay with T47D it was > 100 µM (inactive); in the assay with DU-145 it was > 100 µM (inactive). For the same compound, the GI50 with SK-MEL-5 and with UACC-257 was > 100 µM (inactive) each time.

Turning to `CCOC(=O)c1nc2cc(C(F)(F)F)ccc2nc1Oc1ccc(C#N)cc1`, the GI50 in the assay on OVCAR-5 was > 100 µM (inactive); in the assay on HOP-92, > 100 µM (inactive); with SF-539 it was > 100 µM (inactive); in the assay with SNB-75 it was > 100 µM (inactive); with SR it was 60.7 µM (inactive); in the assay with SF-295, > 100 µM (inactive). Also, the GI50 with NCI/ADR-RES was > 100 µM (inactive); in the assay on MOLT-4 it was 63.2 µM (inactive); in the assay with A498, 69.8 µM (inactive); in the assay on K562, 70.6 µM (inactive); with CCRF-CEM it was 70 µM (inactive); in the assay on COLO 205, > 100 µM (inactive). Further, the GI50 with EKVX was > 100 µM (inactive); with M14 it was > 100 µM (inactive); with T47D, 55.7 µM (inactive); in the assay on DU-145, > 100 µM (inactive); in the assay on SK-MEL-5 it was 92.5 µM (inactive); in the assay with UACC-257, > 100 µM (inactive).

Regarding `CC(O)C(O)C(O)C(/C=N\Nc1ccccc1)=N/Nc1ccccc1` (stereo not drawn), the GI50 was 13.9 µM (inactive) in the assay on OVCAR-5; 14.7 µM (inactive) in the assay with HOP-92; 15.1 µM (inactive) in the assay with SF-539; 16.7 µM (inactive) with SNB-75; 17.3 µM (inactive) with SR; 11.9 µM (inactive) in the assay on NCI-H23. In addition, the GI50 in the assay on SF-295 was 11.6 µM (inactive); in the assay on NCI/ADR-RES, 11.2 µM (inactive); in the assay on MOLT-4, 18.7 µM (inactive); with A498, 9.02 µM (inactive); with K562, 6.78 µM (inactive); with CCRF-CEM, 18.5 µM (inactive). For the same compound, the GI50 with COLO 205 was 14.3 µM (inactive); in the assay with EKVX it was 12.1 µM (inactive); in the assay on HOP-62 it was 14.4 µM (inactive); with M14, 13.3 µM (inactive); with T47D, 6.21 µM (inactive); in the assay with DU-145, 15.1 µM (inactive). Moreover, the GI50 in the assay on SK-MEL-5 was 15.1 µM (inactive).

With `Nc1ccc(-c2nc3cc(F)ccc3s2)cc1Cl`, the GI50 with OVCAR-5 is 0.0219 µM (active); in the assay with HOP-92 it was 25.5 µM (inactive); in the assay on SF-539, 20.2 µM (inactive); in the assay on SNB-75, 20.5 µM (inactive); with SR, 0.0382 µM (active); with SF-295, 23.5 µM (inactive). In addition, the GI50 with NCI/ADR-RES is 48.9 µM (inactive); in the assay on MOLT-4, > 35.6 µM (inactive); in the assay with A498, 3.07 µM (inactive); in the assay with K562 it was 14.8 µM (inactive); in the assay on CCRF-CEM, > 22.9 µM (inactive); in the assay on COLO 205, 0.454 µM (active). Moreover, the GI50 with EKVX is 1.17 µM (inactive); with HOP-62, 8.36 µM (inactive); with M14, > 85.1 µM (inactive); in the assay on T47D it was 0.0615 µM (active); with DU-145 it was 63.2 µM (inactive); in the assay on SK-MEL-5, 25.5 µM (inactive). In the assay with UACC-257, the GI50 is 72.6 µM (inactive).

Consider `O=[N+]([O-])c1ccc(-c2nnc(C34CC5CC(CC(C5)C3)C4)o2)cc1`, for which the GI50 with OVCAR-5, in the assay on HOP-92, in the assay on SF-539, in the assay with SNB-75, in the assay with SR and in the assay with NCI-H23 was > 100 µM (inactive) in each case. For the same compound, the GI50 in the assay with SF-295, with NCI/ADR-RES, with MOLT-4, with A498, in the assay with K562 and with CCRF-CEM was > 100 µM (inactive) in each case. The GI50 in the assay on COLO 205, in the assay on EKVX, in the assay with HOP-62, with M14, with T47D and in the assay on DU-145 was > 100 µM (inactive) each time. Further, the GI50 in the assay with SK-MEL-5 is > 100 µM (inactive).
